Source: ChEMBL document CHEMBL1141075, “4-Oxo-4,7-dihydrothieno[2,3-b]pyridines as non-nucleoside inhibitors of human cytomegalovirus and related herpesvirus polymerases” (J Med Chem, 2005)

How the values were obtained:
[1] = molecular target: T1, DNA polymerase catalytic subunit (Human cytomegalovirus (strain AD169) (HHV-5) (Human herpesvirus 5), UniProt P08546); test: Inhibition of human cytomegalovirus DNA polymerase (95 uL) activity in a solution containing […] HEPES (pH 7.5), incubation for 12 minutes at 26 degrees C; parameters: species or system Human betaherpesvirus 5
T1 sequence (P08546 whole entry): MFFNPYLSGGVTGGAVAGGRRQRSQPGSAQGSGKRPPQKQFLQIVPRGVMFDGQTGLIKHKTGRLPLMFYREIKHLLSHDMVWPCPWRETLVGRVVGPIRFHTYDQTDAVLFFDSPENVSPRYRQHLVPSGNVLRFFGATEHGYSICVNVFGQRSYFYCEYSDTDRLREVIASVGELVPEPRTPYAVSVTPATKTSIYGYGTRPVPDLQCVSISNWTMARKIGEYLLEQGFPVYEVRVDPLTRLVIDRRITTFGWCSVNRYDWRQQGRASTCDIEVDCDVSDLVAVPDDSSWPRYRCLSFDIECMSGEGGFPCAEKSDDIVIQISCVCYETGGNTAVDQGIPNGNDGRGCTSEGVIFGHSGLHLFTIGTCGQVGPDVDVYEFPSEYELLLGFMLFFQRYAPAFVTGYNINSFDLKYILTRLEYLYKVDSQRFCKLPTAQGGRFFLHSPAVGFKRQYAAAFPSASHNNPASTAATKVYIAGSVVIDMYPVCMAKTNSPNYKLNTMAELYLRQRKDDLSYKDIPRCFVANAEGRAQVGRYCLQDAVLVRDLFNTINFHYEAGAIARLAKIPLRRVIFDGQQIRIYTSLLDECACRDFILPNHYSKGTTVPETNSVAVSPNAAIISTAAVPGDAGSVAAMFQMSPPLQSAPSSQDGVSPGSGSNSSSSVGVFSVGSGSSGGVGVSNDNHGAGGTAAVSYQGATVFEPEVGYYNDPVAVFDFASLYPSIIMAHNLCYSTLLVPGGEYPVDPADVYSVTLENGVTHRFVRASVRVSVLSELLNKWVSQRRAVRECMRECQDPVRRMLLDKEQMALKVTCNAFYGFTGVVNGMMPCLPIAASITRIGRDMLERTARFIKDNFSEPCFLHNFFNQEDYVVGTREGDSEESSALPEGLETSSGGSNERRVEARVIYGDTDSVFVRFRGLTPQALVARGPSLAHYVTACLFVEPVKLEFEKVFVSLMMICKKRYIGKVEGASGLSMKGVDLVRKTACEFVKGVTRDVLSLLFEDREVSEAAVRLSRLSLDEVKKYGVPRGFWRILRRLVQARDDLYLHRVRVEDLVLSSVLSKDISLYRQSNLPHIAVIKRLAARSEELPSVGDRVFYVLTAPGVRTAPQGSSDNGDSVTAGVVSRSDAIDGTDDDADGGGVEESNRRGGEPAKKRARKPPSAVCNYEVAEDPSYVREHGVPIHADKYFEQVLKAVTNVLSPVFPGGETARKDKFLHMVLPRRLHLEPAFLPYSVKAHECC

[2] = tested on: HFF; test: Antiviral activity against human cytomegalovirus (Davis strain) grown on human foreskin fibroblast cells determined by reduction in plaque formation upon incubation at 37 degrees C with the compound dissolved in DMSO; type: functional, cell-based
[3] = molecular target: T2, DNA polymerase delta catalytic subunit (Homo sapiens, UniProt P28340); test: Inhibition of human delta DNA polymerase (95 uL) activity in a solution containg […] HEPES (pH 7.5) upon incubation for 12 minutes at 26 degrees C with the compound dissolved in DMSO
T2 sequence (P28340 whole entry): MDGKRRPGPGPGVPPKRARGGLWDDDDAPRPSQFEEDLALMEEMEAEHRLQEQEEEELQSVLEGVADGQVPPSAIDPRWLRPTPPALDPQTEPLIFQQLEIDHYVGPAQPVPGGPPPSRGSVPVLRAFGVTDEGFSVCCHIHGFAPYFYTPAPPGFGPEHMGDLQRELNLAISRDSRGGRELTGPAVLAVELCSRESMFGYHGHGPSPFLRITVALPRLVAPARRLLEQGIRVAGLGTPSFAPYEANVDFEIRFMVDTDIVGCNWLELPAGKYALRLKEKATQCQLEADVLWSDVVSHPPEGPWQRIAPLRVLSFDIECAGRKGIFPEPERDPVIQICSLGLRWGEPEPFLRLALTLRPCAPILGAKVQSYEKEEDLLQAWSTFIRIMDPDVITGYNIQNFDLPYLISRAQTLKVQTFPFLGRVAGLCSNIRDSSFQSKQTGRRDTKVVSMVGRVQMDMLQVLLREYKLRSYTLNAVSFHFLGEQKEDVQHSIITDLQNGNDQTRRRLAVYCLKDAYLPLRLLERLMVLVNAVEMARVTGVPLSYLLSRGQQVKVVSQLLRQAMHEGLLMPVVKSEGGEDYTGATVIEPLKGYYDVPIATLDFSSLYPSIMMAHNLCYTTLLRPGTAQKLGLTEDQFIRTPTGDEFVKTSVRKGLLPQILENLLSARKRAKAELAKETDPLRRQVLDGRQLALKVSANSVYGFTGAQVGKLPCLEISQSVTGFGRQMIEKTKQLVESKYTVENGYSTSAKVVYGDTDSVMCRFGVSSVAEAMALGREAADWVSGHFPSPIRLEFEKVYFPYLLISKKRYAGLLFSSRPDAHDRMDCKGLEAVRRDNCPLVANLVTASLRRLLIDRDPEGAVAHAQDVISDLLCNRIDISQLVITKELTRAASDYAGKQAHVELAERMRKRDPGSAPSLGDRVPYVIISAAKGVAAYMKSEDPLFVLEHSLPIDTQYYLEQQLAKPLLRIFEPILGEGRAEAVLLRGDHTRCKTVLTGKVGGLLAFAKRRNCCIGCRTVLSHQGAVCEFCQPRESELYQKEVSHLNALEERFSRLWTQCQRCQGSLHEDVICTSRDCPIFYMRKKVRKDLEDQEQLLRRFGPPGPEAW

[4] = molecular target: T3, DNA polymerase alpha catalytic subunit (Homo sapiens, UniProt P09884); test: Inhibition of human alpha DNA polymerase (95 uL) activity in a solution containg […] HEPES (pH 7.5) upon incubation for 12 minutes at 26 degrees C with the compound dissolved in DMSO
T3 sequence (P09884 whole entry): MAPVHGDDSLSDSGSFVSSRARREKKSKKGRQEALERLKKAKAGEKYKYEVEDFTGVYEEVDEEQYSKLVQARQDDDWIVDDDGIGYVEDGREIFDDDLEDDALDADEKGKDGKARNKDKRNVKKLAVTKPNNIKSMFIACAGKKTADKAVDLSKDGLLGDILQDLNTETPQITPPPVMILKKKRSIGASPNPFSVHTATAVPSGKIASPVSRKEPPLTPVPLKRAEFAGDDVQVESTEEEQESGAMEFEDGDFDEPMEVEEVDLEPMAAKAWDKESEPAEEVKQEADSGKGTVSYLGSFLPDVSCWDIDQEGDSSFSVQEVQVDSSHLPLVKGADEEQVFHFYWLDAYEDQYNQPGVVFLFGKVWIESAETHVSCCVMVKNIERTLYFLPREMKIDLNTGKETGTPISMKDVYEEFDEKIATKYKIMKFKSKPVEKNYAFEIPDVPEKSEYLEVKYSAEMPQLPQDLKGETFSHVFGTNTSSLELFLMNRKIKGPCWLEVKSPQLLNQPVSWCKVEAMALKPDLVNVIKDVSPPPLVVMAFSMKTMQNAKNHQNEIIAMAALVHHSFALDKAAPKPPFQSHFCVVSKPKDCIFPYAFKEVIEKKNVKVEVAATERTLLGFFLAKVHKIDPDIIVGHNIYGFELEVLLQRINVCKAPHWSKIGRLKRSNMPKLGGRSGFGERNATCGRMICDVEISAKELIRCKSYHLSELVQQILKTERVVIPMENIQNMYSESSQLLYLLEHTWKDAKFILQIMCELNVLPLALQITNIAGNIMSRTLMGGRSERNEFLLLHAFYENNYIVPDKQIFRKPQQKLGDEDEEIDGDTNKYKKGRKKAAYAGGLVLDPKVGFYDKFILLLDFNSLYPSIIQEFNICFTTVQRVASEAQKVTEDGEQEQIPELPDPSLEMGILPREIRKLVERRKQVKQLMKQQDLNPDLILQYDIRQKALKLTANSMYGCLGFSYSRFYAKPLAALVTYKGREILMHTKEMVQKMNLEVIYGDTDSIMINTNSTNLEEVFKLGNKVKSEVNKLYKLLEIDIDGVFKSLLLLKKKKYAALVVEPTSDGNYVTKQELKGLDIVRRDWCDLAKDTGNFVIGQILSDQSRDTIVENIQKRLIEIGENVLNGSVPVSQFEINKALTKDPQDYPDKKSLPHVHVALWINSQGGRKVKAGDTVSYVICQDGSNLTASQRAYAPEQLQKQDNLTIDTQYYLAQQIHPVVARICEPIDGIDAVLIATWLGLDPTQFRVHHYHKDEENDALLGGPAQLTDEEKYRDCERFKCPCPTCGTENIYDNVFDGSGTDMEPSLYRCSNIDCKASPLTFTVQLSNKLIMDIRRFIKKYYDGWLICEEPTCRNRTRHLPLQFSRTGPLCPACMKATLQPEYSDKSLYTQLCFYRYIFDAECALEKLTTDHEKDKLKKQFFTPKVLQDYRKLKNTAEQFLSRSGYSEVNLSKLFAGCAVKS

Compound | IC50 [1] | IC50 [2] | further results
Cn1cc(C(=O)NCc2ccc(Cl)cc2)c(=O)c2cc(CCO)sc21 | 4000 nM |  | 
O=C(NCc1ccc(Cl)cc1)c1cnc2sc(CCCO)cc2c1O |  | > 20000 nM | 
CCN(CC)CCn1cc(C(=O)NCc2ccc(Cl)cc2)c(=O)c2cc(CCCO)sc21 |  | 900 nM | 
CCn1cc(C(=O)NCc2ccc(Cl)cc2)c(=O)c2cc(C#CCO)sc21 |  | 1700 nM | 
CCn1cc(C(=O)NCc2ccc(Cl)cc2)c(=O)c2cc(CCCO)sc21 |  | 2300 nM | 
Cn1cc(C(=O)NCc2ccc(Cl)cc2)c(=O)c2cc(C#CCO)sc21 |  | 1400 nM | 
CC(C)n1cc(C(=O)NCc2ccc(Cl)cc2)c(=O)c2cc(CCCO)sc21 |  | 1300 nM | 
CC(C)n1cc(C(=O)NCc2ccc(Cl)cc2)c(=O)c2cc(C#CCO)sc21 |  | 2700 nM | 
C[C@@]1(CO)[C@H](O)CC[C@@]2(C)[C@H]1CC[C@H]1C[C@@H]3C[C@@]12CC[C@]3(O)CO [APHIDICOLIN] |  |  | IC50 [3]: > 40 µM
O=C(O)P(=O)(O)O [FOSCARNET] |  |  | IC50 [4]: > 20 µM; IC50 [3]: > 20 µM
Cc1cn([C@H]2C[C@H](N=[N+]=[N-])[C@@H](CO[P@](=O)(O)O[P@](=O)(O)OP(=O)(O)O)O2)c(=O)[nH]c1=O [ZIDOVUDINE TRIPHOSPHATE] |  |  | IC50 [4]: 13.4 µM

Continued, in another order:

IC50 [1] | Compound | IC50 [2] | further results
9500 nM | Cn1cc(C(=O)NCc2ccc(Cl)cc2)c(=O)c2cc(C#CCCO)sc21 |  | 
22000 nM | Cn1cc(C(=O)NCc2ccc(Cl)cc2)c(=O)c2cc(C#CCCCO)sc21 |  | 
1100 nM | O=C(NCc1ccc(Cl)cc1)c1cn(CCO)c2sc(C#CCO)cc2c1=O | 2300 nM | 
750 nM | O=C(NCc1ccc(Cl)cc1)c1cn(CCO)c2sc(CCCO)cc2c1=O | 1800 nM | 
2700 nM | O=C(NCc1ccc(Cl)cc1)c1cnc2sc(C#CCO)cc2c1O | > 20000 nM | 
430 nM | Cn1cc(C(=O)NCc2ccc(Cl)cc2)c(=O)c2cc(CCCCO)sc21 |  | 
1800 nM | CCN(CC)CCn1cc(C(=O)NCc2ccc(Cl)cc2)c(=O)c2cc(C#CCO)sc21 | 3800 nM | 
9700 nM | Cn1cc(C(=O)NCc2ccc(Cl)cc2)c(=O)c2cc(CCCCCO)sc21 |  | 
